Measured values: ChEMBL document CHEMBL5055630, “Design, synthesis and biological evaluation of indole-based [1,2,4]triazolo[4,3-a] pyridine derivatives as novel microtubule polymerization inhibitors” (Eur J Med Chem, 2021)
Active and inactive are the calls of the source. The calls are words filed in the database; no cut-off is given here.

Columns and labels:
[1] = Metabolic stability in human liver microsomes assessed as parent compound remaining after 60 mins; assay type: ADME, Microsome; details: read-out: Stability
[2] = Metabolic stability in human liver microsomes assessed as half life; assay type: ADME, Microsome
[3] = Metabolic stability in human liver microsomes assessed as parent compound remaining after 15 mins; assay type: ADME, Microsome; details: read-out: Stability
[4] = Metabolic stability in human liver microsomes assessed as parent compound remaining after 30 mins; assay type: ADME, Microsome; details: read-out: Stability
MCF7 = test: Antiproliferative activity against human MCF7 assessed as reduction in cell viability measured after 48 hrs by MTT assay; assay type: functional, cell-based; details: MCF7, 48 h
A549 = test: Antiproliferative activity against human A549 assessed as reduction in cell viability measured after 48 hrs by MTT assay; assay type: functional, cell-based; details: A549, 48 h
HeLa [5] = test: Antiproliferative activity against human HeLa assessed as reduction in cell viability measured after 48 hrs by MTT assay; assay type: functional, cell-based
[6] = Metabolic stability in human liver microsomes assessed as parent compound remaining after 90 mins; assay type: ADME, Microsome; details: read-out: Stability
[7] = Metabolic stability in human liver microsomes assessed as parent compound remaining measured immediately after compound addition; assay type: ADME, Microsome; details: read-out: Stability
HCT-116 = test: Antiproliferative activity against human HCT-116 assessed as reduction in cell viability measured after 48 hrs by MTT assay; assay type: functional, cell-based; details: HCT-116, 48 h
Tubulin (Homo sapiens) = Tubulin (Homo sapiens) (UniProt P68371+Q9H4B7+P0DPH7+P68366+Q13509+Q71U36+P04350+Q3ZCM7+P07437+P68363+Q9BQE3+Q6PEY2+Q13885+Q9BVA1+Q9BUF5); test: Induction of microtubule disruption in human Hela cells assessed as fragmented and disassembled microtubule network in cytosol at 10 to 50 nM incubated for 24 hrs by AlexaFluor 488 dye/DAPI staining based immunofluorescence assay; assay type: cell-based; details: dose 10-50 nM
HeLa [8] = test: Induction of apoptosis in human HeLa cells assessed as late apoptotic cells at 10 nM incubated for 48 hrs by Annexin V and propidium iodide Staining based assay (reference value: 1 %); assay type: functional
HeLa [9] = test: Inhibition of cell migration in human HeLa cells at 10 nM incubated for 24 hrs by microscopy method relative to control; assay type: functional
HeLa [10] = test: Induction of apoptosis in human HeLa cells assessed as early apoptotic cells at 25 nM incubated for 48 hrs by Annexin V and propidium iodide Staining based assay (reference value: 0.2%); assay type: functional
HeLa [11] = test: Induction of apoptosis in human HeLa cells assessed as reduction in Bcl-2 protein expression after 24 hrs by Western blot analysis; assay type: functional, cell-based; details: dose 10-1000 nM
HeLa [12] = test: Induction of apoptosis in human HeLa cells assessed as late apoptotic cells at 50 nM incubated for 48 hrs by Annexin V and propidium iodide Staining based assay (reference value: 1 %); assay type: functional
HeLa [13] = test: Induction of cell cycle arrest in human HeLa cells assessed as accumulation of cells at G2/M phase at 5 nM incubated for 24 hrs by propidium iodide staining based flow cytometry analysis; assay type: functional
HeLa [14] = test: Induction of cell cycle arrest in human HeLa cells assessed as increase in cyclin B1 level at 10 to 1000 nM measured after 24 hrs by immunoblotting assay; assay type: functional, cell-based; details: dose 10-1000 nM
Tubulin = test: Inhibition of tubulin polymerization (unknown origin) assessed as fluorescence intensity measured for 90 mins by DAPI based microplate reader; assay type: functional, Homo sapiens
HeLa [15] = test: Induction of cell cycle arrest in human HeLa cells assessed as reduction in Cdc25c expression at 10 to 1000 nM measured after 24 hrs by immunoblotting assay; assay type: functional, cell-based; details: dose 10-1000 nM
HeLa [16] = test: Induction of apoptosis in human HeLa cells assessed as increase in cleaved-PARP 1 protein expression after 24 hrs by Western blot analysis; assay type: functional, cell-based; details: dose 10-1000 nM
HeLa [17] = test: Induction of apoptosis in human HeLa cells assessed as early apoptotic cells at 50 nM incubated for 48 hrs by Annexin V and propidium iodide Staining based assay (reference value: 0.2%); assay type: functional
HeLa [18] = test: Induction of apoptosis in human HeLa cells assessed as increase in bad protein expression after 24 hrs by Western blot analysis; assay type: functional, cell-based; details: dose 10-1000 nM
HeLa [19] = test: Induction of apoptosis in human HeLa cells assessed as viable cells at 10 nM incubated for 48 hrs by Annexin V and propidium iodide Staining based assay (reference value: 98.5 %); assay type: functional; details: read-out: Activity
HeLa [20] = test: Induction of apoptosis in human HeLa cells assessed as necrotic cells at 10 nM incubated for 48 hrs by Annexin V and propidium iodide Staining based assay (reference value: 0.4%); assay type: functional
HeLa [21] = test: Induction of cell cycle arrest in human HeLa cells assessed as accumulation of cells at G2/M phase at 10 nM incubated for 24 hrs by propidium iodide staining based flow cytometry analysis; assay type: functional
HeLa [22] = test: Induction of apoptosis in human HeLa cells assessed as necrotic cells at 50 nM incubated for 48 hrs by Annexin V and propidium iodide Staining based assay (reference value: 0.4%); assay type: functional
HeLa [23] = test: Induction of apoptosis in human HeLa cells assessed as late apoptotic cells at 25 nM incubated for 48 hrs by Annexin V and propidium iodide Staining based assay (reference value: 1 %); assay type: functional
HeLa [24] = test: Induction of apoptosis in human HeLa cells assessed as early apoptotic cells at 10 nM incubated for 48 hrs by Annexin V and propidium iodide Staining based assay (reference value: 0.2%); assay type: functional
HeLa [25] = test: Induction of apoptosis in human HeLa cells assessed as increase in cleaved caspase 3 protein expression after 24 hrs by Western blot analysis; assay type: functional, cell-based; details: dose 10-1000 nM
HeLa [26] = test: Induction of apoptosis in human HeLa cells assessed as viable cells at 25 nM incubated for 48 hrs by Annexin V and propidium iodide Staining based assay (reference value: 98.5 %); assay type: functional; details: read-out: Activity
HeLa [27] = test: Induction of cell cycle arrest in human HeLa cells assessed as reduction in Cdc2 expression at 10 to 1000 nM measured after 24 hrs by immunoblotting assay; assay type: functional, cell-based; details: dose 10-1000 nM
HeLa [28] = test: Induction of apoptosis in human HeLa cells assessed as necrotic cells at 25 nM incubated for 48 hrs by Annexin V and propidium iodide Staining based assay (reference value: 0.4%); assay type: functional
HeLa [29] = test: Induction of apoptosis in human HeLa cells assessed as increase in bax protein expression after 24 hrs by Western blot analysis; assay type: functional, cell-based; details: dose 10-1000 nM
HeLa [30] = test: Induction of cell cycle arrest in human HeLa cells assessed as accumulation of cells at G2/M phase at 50 nM incubated for 24 hrs by propidium iodide staining based flow cytometry analysis; assay type: functional
HeLa [31] = test: Inhibition of cell migration in human HeLa cells at 25 nM incubated for 24 hrs by microscopy method relative to control; assay type: functional
HeLa [32] = test: Induction of apoptosis in human HeLa cells assessed as viable cells at 50 nM incubated for 48 hrs by Annexin V and propidium iodide Staining based assay (reference value: 98.5 %); assay type: functional; details: read-out: Activity
HeLa [33] = test: Induction of apoptosis in human HeLa cells assessed as reduction in Bcl-xl protein expression after 24 hrs by Western blot analysis; assay type: functional, cell-based; details: dose 10-1000 nM
Tubulin beta = test: Inhibition of beta-tubulin polymerization in human HeLa cells assessed as inhibition of EBI-beta-tubulin adduct formation measured by Western blot-based EBI competition assay; assay type: cell-based
HeLa [34] = test: Inhibition of cell migration in human HeLa cells at 5 nM incubated for 24 hrs by microscopy method relative to control; assay type: functional
HeLa [35] = test: Induction of apoptosis in human HeLa cells assessed as viable cells at 5 nM incubated for 48 hrs by Annexin V and propidium iodide Staining based assay (reference value: 98.5 %); assay type: functional; details: read-out: Activity
HeLa [36] = test: Induction of apoptosis in human HeLa cells assessed as early apoptotic cells at 5 nM incubated for 48 hrs by Annexin V and propidium iodide Staining based assay (reference value: 0.2%); assay type: functional
HeLa [37] = test: Induction of apoptosis in human HeLa cells assessed as late apoptotic cells at 5 nM incubated for 48 hrs by Annexin V and propidium iodide Staining based assay (reference value: 1 %); assay type: functional
HeLa [38] = test: Induction of apoptosis in human HeLa cells assessed as necrotic cells at 5 nM incubated for 48 hrs by Annexin V and propidium iodide Staining based assay (reference value: 0.4%); assay type: functional

## COc1ccc(/C=C/C=C\c2cc(OC)c(OC)c(OC)c2)cc1O
[1]
  remaining at 1 h: 12.5%
[2]
  half-life: 26.7 min
[3]
  remaining at 0.25 h: 47.7%
[4]
  remaining at 0.5 h: 26.3%
MCF7
  IC50: 75 nM
A549
  IC50: 118 nM
HeLa [5]
  IC50: 62 nM
[6]
  remaining at 1.5 h: 9.2%
[7]
  remaining at 0 min: 100%
HCT-116
  IC50: 42.3 nM

## COc1cc(-c2nnc3c(OC)cc(-c4ccc5c(ccn5C)c4)cn23)cc(OC)c1OC
Tubulin (Homo sapiens)
  Activity: Active
HeLa [8]
  Activity: 48.8%
HeLa [9]
  inhibition at 0.01 µM: 32.2%
HeLa [10]
  Activity: 11.1%
HeLa [11]
  Activity: Dose-dependent effect
HeLa [12]
  Activity: 65.7%
HeLa [13]
  Activity: 17.4%
[1]
  remaining at 1 h: 37.5%
HeLa [14]
  Activity: Active
Tubulin
  IC50: 1640 nM
HeLa [15]
  Activity: Active
[2]
  half-life: 51.7 min
[3]
  remaining at 0.25 h: 75.9%
[4]
  remaining at 0.5 h: 55.5%
HeLa [16]
  Activity: Dose-dependent effect
MCF7
  IC50: 49 nM
HeLa [17]
  Activity: 27.6%
HeLa [18]
  Activity: Dose-dependent effect
HeLa [19]
  viability at 0.01 µM: 41.8%
HeLa [20]
  Activity: 2.4%
HeLa [21]
  Activity: 37.7%
HeLa [22]
  Activity: 2.6%
HeLa [23]
  Activity: 54%
A549
  IC50: 69 nM
HeLa [24]
  Activity: 7.1%
HeLa [25]
  Activity: Dose-dependent effect
HeLa [26]
  viability at 0.025 µM: 31.2%
HeLa [27]
  Activity: Active
HeLa [28]
  Activity: 3.6%
HeLa [5]
  IC50: 15 nM
[6]
  remaining at 1.5 h: 30.1%
HeLa [29]
  Activity: Dose-dependent effect
[7]
  remaining at 0 min: 100%
HeLa [30]
  Activity: 77%
HeLa [31]
  inhibition at 0.025 µM: 44.3%
HCT-116
  IC50: 33 nM
HeLa [32]
  viability at 0.05 µM: 4.2%
HeLa [33]
  Activity: Dose-dependent effect
Tubulin beta
  IC50: Dose-dependent effect
HeLa [34]
  inhibition at 0.005 µM: 22.1%

## COc1cc(-c2nnc3c(OC(C)C)cc(-c4ccc5c(ccn5C)c4)cn23)cc(OC)c1OC
MCF7
  IC50: 204 nM
A549
  IC50: 322 nM
HeLa [5]
  IC50: 503 nM
HCT-116
  IC50: 402 nM

## COc1cc(-c2nnc3c(OC4CC4)cc(-c4ccc5[nH]ccc5c4)cn23)cc(OC)c1OC
MCF7
  IC50: 259 nM
A549
  IC50: 198 nM
HeLa [5]
  IC50: 119 nM
HCT-116
  IC50: 275 nM

## COc1cc(-c2cc(OC)c3nnc(-c4ccc5c(ccn5C)c4)n3c2)cc(OC)c1OC
MCF7
  IC50: > 10000 nM
A549
  IC50: > 10000 nM
HeLa [5]
  IC50: > 10000 nM
HCT-116
  IC50: > 10000 nM

## COc1cc(-c2nnc3c(OCC(F)(F)F)cc(-c4ccc5[nH]ccc5c4)cn23)cc(OC)c1OC
MCF7
  IC50: 608 nM
A549
  IC50: 585 nM
HeLa [5]
  IC50: 348 nM
HCT-116
  IC50: 900 nM

## CCOc1cc(-c2ccc3[nH]ccc3c2)cn2c(-c3cc(OC)c(OC)c(OC)c3)nnc12
MCF7
  IC50: 284 nM
A549
  IC50: 589 nM
HeLa [5]
  IC50: 166 nM
HCT-116
  IC50: 374 nM

## COc1cc(-c2nnc3c(OC4CC4)cc(-c4ccc5c(ccn5C)c4)cn23)cc(OC)c1OC
MCF7
  IC50: 118 nM
A549
  IC50: 168 nM
HeLa [5]
  IC50: 97 nM
HCT-116
  IC50: 135 nM

## COc1ccc(/C=C\c2cc(OC)c(OC)c(OC)c2)cc1O [COMBRETASTATIN A4]
HeLa [35]
  viability at 0.005 µM: 6.7%
HeLa [36]
  Activity: 38.6%
[1]
  remaining at 1 h: 26.1%
HeLa [37]
  Activity: 52.2%
[2]
  half-life: 32.5 min
[3]
  remaining at 0.25 h: 75.6%
[4]
  remaining at 0.5 h: 54.1%
MCF7
  IC50: 10 nM
HeLa [38]
  Activity: 2.6%
A549
  IC50: 15 nM
[6]
  remaining at 1.5 h: 15.4%
[7]
  remaining at 0 min: 100%
